Results on 27 compounds are retold here after article PMC8537711, “Mechanistic Insights into Binding of Ligands with Thiazolidinedione Warhead to Human Histone Deacetylase 4” (Pharmaceuticals, 2021).

In series [1] the target is T1, cdHDAC4wt (catalytic domain of human wild type histone deacetylase 4) (Homo sapiens, UniProt P56524).
T1 construct: consists of 410 amino acids (human HDAC4 T648-T1057) and has a molecular weight of 44.2 kDa; His6-SUMO (cleaved yes); made in house; host or cells: E. coli (BL21) DE3 pLysS, pET14b vector
Description: IC50 determination, enzyme activity assay with Boc-Lys{TFA}-AMC. Particulars: mean ± SD, N = 3. Type of series: biochemical. On the procedure:
Afterwards the enzymatic reaction was initiated by the addition of 20 µM Boc-Lys{TFA}-7-Amino-4-methylcoumarin (Bachem, Bubendorf, Switzerland) as substrate. […] The deacetylated substrate was converted into a fluorescent product by the addition of 0.4 mg/mL trypsin (AppliChem, Darmstadt, Germany). The release of fluorogenic substrate was followed in a microplate reader (PherStar Plus, BMG Labtech, Ortenberg, Germany) at 450 nm (λEx = 350 nm) and correlated to enzyme activity.
All incubations steps were performed for 60 min at 30 °C and 450 rpm.

The target of series [2] is T2, cdHDAC4wt (Homo sapiens, UniProt P56524).
T2 construct: consists of 410 amino acids (human HDAC4 T648-T1057) and has a molecular weight of 44.2 kDa; His6-SUMO (cleaved yes); made in house; host or cells: E. coli (BL21) DE3 pLysS, pET14b vector
In words: Association kinetics (semi continuous enzyme activity assay, kobs vs inhibitor concentration). The format is biochemical. The protocol:
A serial dilution of inhibitor beginning at 10-fold of respective IC50-value in assay buffer (25 mM Tris-HCl, pH 8.0, 75 mM KCl, 0.001% Pluronic F-127) was made in a black 96-well microtiter half-area plate (Greiner, Kremsmuenster, Austria). The dilutions were added to 3 nM cdHDAC4wt. Shortly after, the reaction was initiated by adding 20 µM Boc-Lys{TFA}-7-Amino-4-methylcoumarin (Bachem, Bubendorf, Switzerland) as substrate. […] Finally 0.4 mg/mL trypsin was added to split the deacetylated substrate in the fluorescent product which was measured at 450 nm (λEx = 350 nm) (PherStar Plus, BMG Labtech, Ortenberg, Germany). […] The standardized RFUs were plotted against the incubation time. […] Due to this knowledge the data were fitted via non linear regression with GraphPad Prism program to the following equation by Copeland [27]:(2) Y=νs·t+νi−νs/kobs·(1−e^(−kobs·t))+d where vi is the initial slope, vs is the second lower slope, kobs is the respective rate constant, t is time and d the correction for possible data offset.
Afterwards kobs values were plotted against their respective inhibitor concentration.

In series [3] the target is T2, cdHDAC4wt. Description: Reversibility assay via rapid dilution; residence time from reversibility data. The format is biochemical. The following applies: first order dissociation assumed; read-out: RT (RD), residence time from rapid dilution. The protocol: Rapid dilution was performed by diluting the incubated mixture 100-fold with substrate (Boc-Lys{TFA}-7-Amino-4-methylcoumarin (Bachem, Bubendorf, Switzerland)) with the final substrate concentration being 20 µM. […] A positive control without TZD ligand and a blank without enzyme and TZD ligand were also carried out. […] Once again the final substrate concentration was 20 µM. […] The deacetylated substrate was converted into a fluorescent product by the addition of 0.4 mg/mL trypsin (AppliChem, Darmstadt, Germany). The release of fluorogenic substrate was followed in a microplate reader (PherStar Plus, BMG Labtech, Ortenberg, Germany) at 450 nm (λEx = 350 nm) and correlated the positive control. […] All incubations steps were performed for 60 min at 30 °C and 450 rpm. The substrate was preheated to 30 °C before the rapid dilution step.
The reciprocal values for k equals the residence time of the respective TZD ligand (residence time = koff^−1), which can be compared with the residence times gained from association data.

[4] abbreviates: isomerization rate, two step model.

T2 sequence (P56524 648-1057): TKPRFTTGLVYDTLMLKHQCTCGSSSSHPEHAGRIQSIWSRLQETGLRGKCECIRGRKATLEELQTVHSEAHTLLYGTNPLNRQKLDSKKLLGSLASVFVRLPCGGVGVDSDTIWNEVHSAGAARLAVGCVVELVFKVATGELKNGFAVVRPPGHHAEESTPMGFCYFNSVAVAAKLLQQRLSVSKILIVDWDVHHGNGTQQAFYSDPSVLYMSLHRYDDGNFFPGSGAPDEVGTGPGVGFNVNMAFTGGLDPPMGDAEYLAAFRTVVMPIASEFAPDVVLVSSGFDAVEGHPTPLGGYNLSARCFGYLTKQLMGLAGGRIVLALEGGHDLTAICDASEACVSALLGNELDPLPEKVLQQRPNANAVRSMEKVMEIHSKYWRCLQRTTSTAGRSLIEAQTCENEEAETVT
T1 sequence (P56524 648-1057): as above

As usually defined, the melting point is the temperature, or range, at which the solid turns liquid. Consider `Cc1ccc2nc(NC(=O)CN3C(=O)SC(=Cc4ccc(Br)cc4)C3=O)sc2c1` [GB31, 2-(5-(4-bromobenzylidene)-2,4-dioxothiazolidin-3-yl)-N-(6-methylbenzo[d]thiazol-2-yl)acetamide], for which the melting point is 292 to 294 °C. Broadly, the IC50 is the concentration that inhibits the measured activity by half. A high value points to weaker potency. Usually koff stands for a measure of how fast the partners let go of each other. For `O=C1NC(=O)/C(=C/c2ccc(OCC(=O)N3N=C(c4ccc(F)cc4)CC3c3ccc(Cl)c(Cl)c3)cc2)S1` (centres unmarked) [12j], the IC50 in series [1] was 830 ± 20 nM. Also, the residence time at cdHDAC4wt [2] (1/koff (two step) or 1/k−3 (one step), read-out: RT (KF), residence time from kinetic fit) is 9 ± 3 min; at cdHDAC4wt [3], 11 ± 5 min. For the same compound, on cdHDAC4wt [2] (setting [4]), the forward isomerization rate constant (k2) came out at 0.0031 ± 0.0007 s⁻¹. For the same compound, the koff on cdHDAC4wt [2] (isomerization rate, two step model, y-axis intercept) is 0.0018 ± 0.0005 s⁻¹.

In turn, `O=C(CN1C(=O)SC(=Cc2ccc(Cl)cc2)C1=O)Nc1nc2ccc(F)cc2s1` [GB33, 2-(5-(4-chlorobenzylidene)-2,4-dioxothiazolidin-3-yl)-N-(6-fluorobenzo[d]thiazol-2-yl)acetamide] gave a melting point of 290 to 292 °C.

The compound `O=C1NC(=O)/C(=C/c2ccc3cc(OCC(=O)N4N=C(c5ccc(F)cc5)CC4c4ccco4)ccc3c2)S1` (centres unmarked) [16c] gave a 50% inhibitory concentration (IC50) in series [1] of 1400 ± 200 nM. This compound also displayed a forward isomerization rate constant (k2) on cdHDAC4wt [2] (setting [4]) of 0.0035 ± 0.0018 s⁻¹. The residence time on cdHDAC4wt [3] stood at 21 ± 7 min. `Cc1ccc(C2CC(c3ccc(F)cc3)=NN2C(=O)COc2ccc3cc(/C=C4\SC(=O)NC4=O)ccc3c2)cc1` (centres unmarked) [16g]: in series [1], the IC50 was found to be 460 ± 60 nM. This compound gave a forward isomerization rate constant (k2) at cdHDAC4wt [2] (setting [4]) of 0.0051 ± 0.0011 s⁻¹. Further, the residence time on cdHDAC4wt [3] amounted to 15 ± 2 min.

`Cc1cc2nc(NC(=O)CN3C(=O)SC(=Cc4ccccc4)C3=O)sc2cc1C` [GB22, 2-(5-benzylidene-2,4-dioxothiazolidin-3-yl)-N-(5,6-dimethylbenzo[d]thiazol-2-yl)acetamide] returned a melting point of 276 to 278 °C. Turning to `CCOc1ccc2nc(NC(=O)CN3C(=O)SC(=Cc4ccccn4)C3=O)sc2c1` [PB8, 2-(2,4-dioxo-5-(pyridin-2-ylmethylene)thiazolidin-3-yl)-N-(6-ethoxybenzo[d]thiazol-2-yl)acetamide], the melting point is 230 °C (dec.). Same read-out and setting: the value for `Cc1ccc(C=C2SC(=O)N(CC(=O)Nc3nc4c(F)cc(F)cc4s3)C2=O)cc1C` [GB20, N-(4,6-difluorobenzo[d]thiazol-2-yl)-2-(5-(3,4-dimethylbenzylidene)-2,4-dioxothiazolidin-3-yl)acetamide] was 271 to 273 °C; that for `O=C(CN1C(=O)SC(=Cc2ccccn2)C1=O)Nc1nc2c(F)cc(F)cc2s1` [PB5, N-(4,6-difluorobenzo[d]thiazol-2-yl)-2-(2,4-dioxo-5-(pyridin-2-ylmethylene)thiazolidin-3-yl)acetamide] was 294 °C (dec.); that for `O=C(CN1C(=O)SC(=Cc2ccccn2)C1=O)Nc1nc2ccc(F)cc2s1` [PB9, 2-(2,4-dioxo-5-(pyridin-2-ylmethylene)thiazolidin-3-yl)-N-(6-fluorobenzo[d]thiazol-2-yl)acetamide] was 265 °C (dec.). Still for that read-out and setting: in the case of `O=C(CN1C(=O)SC(=Cc2ccc(F)cc2)C1=O)Nc1nc2ccc(F)cc2s1` [GB34, N-(6-fluorobenzo[d]thiazol-2-yl)-2-(5-(4-fluorobenzylidene)-2,4-dioxothiazolidin-3-yl)acetamide] it was 260 to 262 °C.

For the compound `O=C(CN1C(=O)SC(=Cc2ccccc2)C1=O)Nc1nc2c(F)cccc2s1` [GB30, 2-(5-benzylidene-2,4-dioxothiazolidin-3-yl)-N-(4-fluorobenzo[d]thiazol-2-yl)acetamide], the melting point lay within 272 to 274 °C. In turn, `Cc1ccc(C=C2SC(=O)N(CC(=O)Nc3nc4c(F)cc(F)cc4s3)C2=O)cc1` [GB19, N-(4,6-difluorobenzo[d]thiazol-2-yl)-2-(5-(4-methylbenzylidene)-2,4-dioxothiazolidin-3-yl)acetamide] showed a melting point of 295 to 297 °C. Regarding `Cc1cc2nc(NC(=O)CN3C(=O)SC(=Cc4ccccn4)C3=O)sc2cc1C` [PB6, N-(5,6-dimethylbenzo[d]thiazol-2-yl)-2-(2,4-dioxo-5-(pyridin-2-ylmethylene)thiazolidin-3-yl)acetamide], the melting point was 295 °C (dec.). On the same count and under the same terms, the value for `O=C(CN1C(=O)SC(=Cc2ccccn2)C1=O)Nc1nc2c(Cl)cccc2s1` [PB4, N-(4-chlorobenzo[d]thiazol-2-yl)-2-(2,4-dioxo-5-(pyridin-2-ylmethylene)thiazolidin-3-yl)acetamide] was 273 °C (dec.); that for `Cc1ccc2nc(NC(=O)CN3C(=O)SC(=Cc4ccc(F)cc4F)C3=O)sc2c1` [GB13, 2-(5-(2,4-difluorobenzylidene)-2,4-dioxothiazolidin-3-yl)-N-(6-methylbenzo[d]thiazol-2-yl)acetamide] was 266 to 268 °C; that for `Cc1ccc(C=C2SC(=O)N(CC(=O)Nc3nc4cc(C)c(C)cc4s3)C2=O)cc1C` [GB26, N-(5,6-dimethylbenzo[d]thiazol-2-yl)-2-(5-(3,4-dimethylbenzylidene)-2,4-dioxothiazolidin-3-yl)acetamide] was 284 to 286 °C. As to `Cc1ccc(C=C2SC(=O)N(CC(=O)Nc3nc4c(Cl)cccc4s3)C2=O)cc1C` [GB6, N-(4-chlorobenzo[d]thiazol-2-yl)-2-(5-(3,4-dimethylbenzylidene)-2,4-dioxothiazolidin-3-yl)acetamide], the melting point fell in the range of 214 to 216 °C. On the same count and under the same terms, the value for `Cc1cccc2sc(NC(=O)CN3C(=O)SC(=Cc4ccc(F)cc4)C3=O)nc12` [GB10, 2-(5-(4-fluorobenzylidene)-2,4-dioxothiazolidin-3-yl)-N-(4-methylbenzo[d]thiazol-2-yl)acetamide] was 225 to 227 °C; that for `Cc1ccc(C=C2SC(=O)N(CC(=O)Nc3nc4c(Cl)cccc4s3)C2=O)cc1` [GB2, N-(4-chlorobenzo[d]thiazol-2-yl)-2-(5-(4-methylbenzylidene)-2,4-dioxothiazolidin-3-yl)acetamide] was 292 to 294 °C; that for `COc1cccc2sc(NC(=O)CN3C(=O)SC(=Cc4ccccn4)C3=O)nc12` [PB7, 2-(2,4-dioxo-5-(pyridin-2-ylmethylene)thiazolidin-3-yl)-N-(4-methoxybenzo[d]thiazol-2-yl)acetamide] was 220 to 222 °C. In the case of `O=C(CN1C(=O)SC(=Cc2ccc(F)cc2F)C1=O)Nc1nc2c(F)cc(F)cc2s1` [GB29, N-(4,6-difluorobenzo[d]thiazol-2-yl)-2-(5-(2,4-difluorobenzylidene)-2,4-dioxothiazolidin-3-yl)acetamide], the melting point lay in the range of 274 to 276 °C.

The compound `COc1cccc2sc(NC(=O)CN3C(=O)SC(=Cc4ccc(F)cc4)C3=O)nc12` [GB35, 2-(5-(4-fluorobenzylidene)-2,4-dioxothiazolidin-3-yl)-N-(4-methoxybenzo[d]thiazol-2-yl)acetamide] gave a melting point of 172 °C. The compound `O=C(CN1C(=O)SC(=Cc2ccccc2)C1=O)Nc1nc2c(F)cc(F)cc2s1` [GB12, 2-(5-benzylidene-2,4-dioxothiazolidin-3-yl)-N-(4,6-difluorobenzo[d]thiazol-2-yl)acetamide] yielded a melting point of 280 to 282 °C. Regarding `Cc1cccc2sc(NC(=O)CN3C(=O)SC(=Cc4ccccn4)C3=O)nc12` [PB2, 2-(2,4-dioxo-5-(pyridin-2-ylmethylene)thiazolidin-3-yl)-N-(4-methylbenzo[d]thiazol-2-yl)acetamide], the melting point was 260 °C (dec.). Consider `Cc1cc2nc(NC(=O)CN3C(=O)SC(=Cc4ccc(F)cc4)C3=O)sc2cc1C` [GB25, N-(5,6-dimethylbenzo[d]thiazol-2-yl)-2-(5-(4-fluorobenzylidene)-2,4-dioxothiazolidin-3-yl)acetamide], for which the melting point is 298 to 299 °C. With `COc1cccc2sc(NC(=O)CN3C(=O)SC(=Cc4ccccc4)C3=O)nc12` [GB8, 2-(5-benzylidene-2,4-dioxothiazolidin-3-yl)-N-(4-methoxybenzo[d]thiazol-2-yl)acetamide], the melting point lay in the range of 157 to 159 °C.
